Measurements taken from patent US5440016A, “Peptides of the formula (KFmoc) ZZZ and their uses” (priority 1993, dated 1995).
Converted amounts (≈) assume the structure as drawn. Like-named read-outs stand apart in the source and are kept apart here. Square brackets hold non-standard residues; d marks the D form. Peptide text beside a SMILES is read from it. * marks the point of attachment. Fmoc = O=C(OCC1c2ccccc2-c2ccccc21)*

Assays:
[1] = tested on: Candida albicans ATCC 10231; conditions: for IC50 (μg/ml) against C. albicans: Tables 22-23
[2] = tested on: Escherichia coli ATCC 25922; conditions: for IC50 (μg/ml) against E. coli: Tables 22-23
Method: (§1) Escherichia coli ATCC 25922 and P. aeruginosa ATCC 27853 were used as Gram-negative (-) and Staphylococcus aureus ATCC 29213 as Gram-positive (+) bacteria. Bacteria were grown overnight at 37° C. in Mueller-Hinton (MH) broth. This culture was reinoculated and incubated at 37° C. to reach the exponential phase of bacteria growth, i.e., a final bacterial suspension containing 10^5 to 5×10^5 colony-forming units (CFU)/ml. The concentration of cells was established by plating 100 μl of different dilutions of the culture solution (e.g., 10^-2, 10^-3 and 10^-4) onto solid agar plates.
(§2) Following an overnight incubation at 37° C., the CFU thus formed were counted on each agar plate. In 96-well tissue culture plates, as control blanks, eight wells per plate contained only medium, while as a positive growth control, eight other wells contained medium plus cells.
(§3) The plates were incubated overnight at 37° C., and the optical density (OD) determined at 620 nm after different times of incubation.

[3] = tested on: Human red blood cells (RBCs); assay: Hemolytic activity; format: cell-based; conditions: for % hemolysis at 100 μg/ml: Tables 22-23
[4] = tested on: P. aeruginosa ATCC 27853; assay: Antimicrobial assay, P. aeruginosa; conditions: Tables 22-23
Method: as §1, §2, §3

[5] = tested on: Staphylococcus aureus ATCC 29213; conditions: for IC50 (μg/ml) against S. aureus: Tables 22-23
Method: as §1, §2, §3

[6] = tested on: Streptococcus sanguis ATCC 10556; conditions: for IC50 (μg/ml) against S. sanguis: Tables 22-23
[7] = Tables 2-5, concentration necessary to inhibit 50% growth
[8] = Tables 15-17, lower parts (unnatural amino acids)
[9] = Tables 3-5, lower parts (unnatural amino acids)
[10] = Tables 7-9, lower parts (unnatural amino acids)
[11] = Tables 11-13, lower parts (unnatural amino acids)

Row | Compound | IC50 (μg/ml) against C. albicans [1] | IC50 (μg/ml) against E. coli [2] | % hemolysis at 100 μg/ml [3] | IC50 (μg/ml) against P. aeruginosa [4] | IC50 (μg/ml) against S. aureus [5] | IC50 (μg/ml) against S. sanguis [6] | IC50 against C. albicans ([1]; Tables 14-17) | IC50 against E. coli [2, 7] | HD50 (concentration necessary to lyse 50% of the cells) ([3]; Tables 18-21) | IC50 against S. aureus ([5]; Tables 6-9) | IC50 against S. sanguis ([6]; Tables 10-13) | also measured
1 | Ac-RRWWCS-NH2 [Ac-RRWWCS-NH2] | 211 to 213 µg/mL | 20 to 21 µg/mL | 1.8% | 290 µg/mL | 41 to 44 µg/mL | 54 to 59 µg/mL | – | – | – | – | – | –
2 | Ac-RRWWCR-NH2 [Ac-RRWWCR-NH2] | 100 to 101 µg/mL | 12 to 18 µg/mL | 0.0% | 87 to 130 µg/mL | 11 to 12 µg/mL | 22 to 45 µg/mL | – | – | – | – | – | –
3 | MagaininII-NH2 [reference compound] | 41 to 42 µg/mL | 72 to 98 µg/mL | – | 150 to 200 µg/mL | 32 to 64 µg/mL | 143 to 235 µg/mL | – | – | – | – | – | –
4 | Ac-RRWWCG-NH2 [Ac-RRWWCG-NH2] | 215 to 218 µg/mL | 22 to 23 µg/mL | 1.9% | 200 µg/mL | 46 to 49 µg/mL | 47 to 66 µg/mL | – | – | – | – | – | –
5 | Ac-RRWWCM-NH2 [Ac-RRWWCM-NH2] | 96 to 112 µg/mL | 23 to 27 µg/mL | 15% | 93 to 103 µg/mL | 13 to 20 µg/mL | 13 to 22 µg/mL | – | – | – | – | – | –
6 | CC(=O)N[C@H](CCCNC(=N)N)C(=O)N[C@H](CCCNC(=N)N)C(=O)N[C@H](Cc1c[nH]c2ccccc12)C(=O)N[C@H](Cc1c[nH]c2ccccc12)C(=O)N[C@H](CS)C(=O)N[C@H](CCCNC(=N)N)C(N)=O [Ac-rrwwcr-NH2] (Ac-[dR][dR][dW][dW][dC][dR]-NH2) | 68 to 78 µg/mL | 10 to 11 µg/mL | 2.0% | 28 to 29 µg/mL | 9 to 13 µg/mL | 14 to 15 µg/mL | – | – | – | – | – | –
7 | Ac-RRWWCY-NH2 [Ac-RRWWCY-NH2] | 184 to 212 µg/mL | 20 to 21 µg/mL | 5.8% | 97 to 110 µg/mL | 12 to 28 µg/mL | 59 to 60 µg/mL | – | – | – | – | – | –
8 | Ac-RRWWCL-NH2 [Ac-RRWWCL-NH2] | 65 to 95 µg/mL | 19 to 22 µg/mL | 5.0% | 46 to 54 µg/mL | – | 18 to 21 µg/mL | – | – | – | – | – | –
9 | Ac-RRWWCF-NH2 [Ac-RRWWCF-NH2] | 70 to 97 µg/mL | 20 to 21 µg/mL | 3.3% | 42 to 45 µg/mL | 10 to 14 µg/mL | 14 to 22 µg/mL | – | – | – | – | – | –
10 | Ac-RRWWCA-NH2 [Ac-RRWWCA-NH2] | 193 to 210 µg/mL | 21 to 23 µg/mL | 2.2% | 97 to 98 µg/mL | 35 to 40 µg/mL | 60 to 70 µg/mL | – | – | – | – | – | –
11 | Ac-RRWWCK-NH2 [Ac-RRWWCK-NH2] | 100 to 110 µg/mL | 17 to 21 µg/mL | 0.5% | 150 µg/mL | 17 to 18 µg/mL | 38 to 42 µg/mL | – | – | – | – | – | –
12 | C[C@H](O)[C@@H](NC(=O)[C@H](CCCCN)NC(=O)[C@H](Cc1c[nH]c2ccccc12)NC(=O)[C@H](CCCCN)NC(=O)OCC1c2ccccc2-c2ccccc21)C(N)=O [(KFmoc)WKt-NH2] (Fmoc-KWK[dT]-NH2) | – | – | – | – | – | – | 292 µg/mL (≈ 373 µM) | 55 µg/mL (≈ 70.2 µM) | 435 µg/mL | 10 µg/mL (≈ 12.8 µM) | 7 µg/mL (≈ 8.94 µM) | –
13 | NCCCC[C@H](NC(=O)OCC1c2ccccc2-c2ccccc21)C(=O)N[C@@H](Cc1c[nH]c2ccccc12)C(=O)N[C@@H](Cc1ccc(O)cc1)C(=O)N[C@H](CCCCN)C(N)=O [(KFmoc)WYk-NH2] (Fmoc-KWY[dK]-NH2) | – | – | – | – | – | – | 121 µg/mL (≈ 143 µM) | 18 µg/mL (≈ 21.3 µM) | 62 µg/mL | 5 µg/mL (≈ 5.92 µM) | 5 µg/mL (≈ 5.92 µM) | –
14 | NCCCC[C@H](NC(=O)OCC1c2ccccc2-c2ccccc21)C(=O)N[C@@H](Cc1c[nH]c2ccccc12)C(=O)N[C@@H](CCCCN)C(=O)N[C@H](CS)C(N)=O [(KFmoc)WKc-NH2] (Fmoc-KWK[dC]-NH2) | – | – | – | – | – | – | 243 µg/mL (≈ 310 µM) | 23 µg/mL (≈ 29.3 µM) | 25 µg/mL | 4 µg/mL (≈ 5.1 µM) | 4 µg/mL (≈ 5.1 µM) | –
15 | (KFmoc)Wf(dOrn)-NH2 | – | – | – | – | – | – | – | – | – | – | – | IC50 against C. albicans [1, 8]: 54 μg/m; IC50 against E. coli [2, 9]: 19 μg/m; HD50 (concentration necessary to lyse 50% of the cells) ([3]; Table 20, lower part): 42 μg/m; IC50 against S. aureus [5, 10]: 4 μg/m; IC50 against S. sanguis [6, 11]: 4 μg/m
16 | CC(C)[C@@H](NC(=O)[C@H](CCCCN)NC(=O)[C@H](Cc1c[nH]c2ccccc12)NC(=O)[C@H](CCCCN)NC(=O)OCC1c2ccccc2-c2ccccc21)C(N)=O [(KFmoc)WKv-NH2] (Fmoc-KWK[dV]-NH2) | – | – | – | – | – | – | 187 µg/mL (≈ 239 µM) | 54 µg/mL (≈ 69.1 µM) | 181 µg/mL | 9 µg/mL (≈ 11.5 µM) | 10 µg/mL (≈ 12.8 µM) | –
17 | (KFmoc)WY(dOrn)-NH2 | – | – | – | – | – | – | – | – | 67 µg/mL | – | – | IC50 against C. albicans [1, 8]: 359 μg/m; IC50 against E. coli [2, 9]: 35 μg/m; IC50 against S. aureus [5, 10]: 5 μg/m; IC50 against S. sanguis [6, 11]: 7 μg/m
18 | NCCCC[C@H](NC(=O)OCC1c2ccccc2-c2ccccc21)C(=O)N[C@@H](Cc1c[nH]c2ccccc12)C(=O)N[C@@H](Cc1ccc(O)cc1)C(=O)N[C@H](CO)C(N)=O [(KFmoc)WYs-NH2] (Fmoc-KWY[dS]-NH2) | – | – | – | – | – | – | 353 µg/mL (≈ 439 µM) | 106 µg/mL (≈ 132 µM) | 27 µg/mL | 5 µg/mL (≈ 6.22 µM) | 5 µg/mL (≈ 6.22 µM) | –
19 | (KFmoc)ci(Hyp)-NH2 | – | – | – | – | – | – | – | – | 39 µg/mL | – | – | IC50 against C. albicans [1, 8]: 205 μg/m; IC50 against E. coli [2, 9]: 52 μg/m; IC50 against S. aureus [5, 10]: 8 μg/m; IC50 against S. sanguis [6, 11]: 8 μg/m
20 | (KFmoc)ci(KCBZ)-NH2 | – | – | – | – | – | – | – | – | 53 µg/mL | – | – | IC50 against C. albicans [1, 8]: 78 μg/m; IC50 against E. coli [2, 9]: 15 μg/m; IC50 against S. aureus [5, 10]: 5 μg/m; IC50 against S. sanguis [6, 11]: 3 μg/m
21 | NCCCC[C@H](NC(=O)OCC1c2ccccc2-c2ccccc21)C(=O)N[C@@H](Cc1c[nH]c2ccccc12)C(=O)N[C@@H](CCCCN)C(=O)N[C@H](Cc1c[nH]c2ccccc12)C(N)=O [(KFmoc)WKw-NH2] (Fmoc-KWK[dW]-NH2) | – | – | – | – | – | – | 116 µg/mL (≈ 134 µM) | 15 µg/mL (≈ 17.3 µM) | 32 µg/mL | 4 µg/mL (≈ 4.61 µM) | 4 µg/mL (≈ 4.61 µM) | –
22 | CC[C@@H](C)[C@@H](NC(=O)[C@H](CCCCN)NC(=O)[C@H](Cc1c[nH]c2ccccc12)NC(=O)[C@H](CCCCN)NC(=O)OCC1c2ccccc2-c2ccccc21)C(N)=O [(KFmoc)WKi-NH2] (Fmoc-KWK[dI]-NH2) | – | – | – | – | – | – | 209 µg/mL (≈ 263 µM) | 23 µg/mL (≈ 28.9 µM) | 296 µg/mL | 9 µg/mL (≈ 11.3 µM) | 8 µg/mL (≈ 10.1 µM) | –
23 | (KFmoc)Wf(Bala)-NH2 | – | – | – | – | – | – | – | – | – | – | – | IC50 against C. albicans [1, 8]: 170 μg/m; IC50 against E. coli [2, 9]: 70 μg/m; HD50 (concentration necessary to lyse 50% of the cells) ([3]; Table 20, lower part): 360 μg/m; IC50 against S. aureus [5, 10]: 11 μg/m; IC50 against S. sanguis [6, 11]: 10 μg/m
24 | CC(C)C[C@@H](NC(=O)[C@@H](Cc1ccccc1)NC(=O)[C@H](Cc1c[nH]c2ccccc12)NC(=O)[C@H](CCCCN)NC(=O)OCC1c2ccccc2-c2ccccc21)C(N)=O [(KFmoc)Wfl-NH2] (Fmoc-KW[dF][dL]-NH2) | – | – | – | – | – | – | 127 µg/mL (≈ 156 µM) | 28 µg/mL (≈ 34.4 µM) | 197 µg/mL | 2 µg/mL (≈ 2.46 µM) | 2 µg/mL (≈ 2.46 µM) | –
25 | (KFmoc)WK(dOrn)-NH2 | – | – | – | – | – | – | 196 µg/mL | 69 µg/mL | 369 µg/mL | 5 µg/mL | 5 µg/mL | –
26 | NCCCC[C@H](NC(=O)OCC1c2ccccc2-c2ccccc21)C(=O)N[C@@H](Cc1c[nH]c2ccccc12)C(=O)N[C@@H](CCCCN)C(=O)N[C@H](Cc1ccc(O)cc1)C(N)=O [(KFmoc)WKy-NH2] (Fmoc-KWK[dY]-NH2) | – | – | – | – | – | – | 144 µg/mL (≈ 170 µM) | 39 µg/mL (≈ 46.2 µM) | 368 µg/mL | 7 µg/mL (≈ 8.28 µM) | 8 µg/mL (≈ 9.47 µM) | –
27 | NCCCC[C@H](NC(=O)OCC1c2ccccc2-c2ccccc21)C(=O)N[C@@H](Cc1c[nH]c2ccccc12)C(=O)N[C@@H](Cc1ccc(O)cc1)C(=O)N[C@H](Cc1c[nH]cn1)C(N)=O [(KFmoc)WYh-NH2] (Fmoc-KWY[dH]-NH2) | – | – | – | – | – | – | 192 µg/mL (≈ 225 µM) | 40 µg/mL (≈ 46.8 µM) | 73 µg/mL | 7 µg/mL (≈ 8.2 µM) | 8 µg/mL (≈ 9.37 µM) | –
